The target in one data set is Cytochrome P450 2C19 (Homo sapiens, UniProt P33261). Nature of the data set: Cytochrome panel assay with activity outcomes. Panel member name: p450-cyp2c19 Compounds with AC50 equal or less than 10 uM are considered active. The format is functional.
For another data set, the target named is Cytochrome P450 3A4 (Homo sapiens, UniProt P08684).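 Note: CYP3A4 tested as one member of a cytochrome P450 panel screen.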
The target of a further data set is Cytochrome P450 2C9 (Homo sapiens, UniProt P11712).
Data set [1] has as its target T1, Rac GTPase-activating protein 1 (Homo sapiens, UniProt Q9H0H5).
T1 sequence (Q9H0H5 whole entry): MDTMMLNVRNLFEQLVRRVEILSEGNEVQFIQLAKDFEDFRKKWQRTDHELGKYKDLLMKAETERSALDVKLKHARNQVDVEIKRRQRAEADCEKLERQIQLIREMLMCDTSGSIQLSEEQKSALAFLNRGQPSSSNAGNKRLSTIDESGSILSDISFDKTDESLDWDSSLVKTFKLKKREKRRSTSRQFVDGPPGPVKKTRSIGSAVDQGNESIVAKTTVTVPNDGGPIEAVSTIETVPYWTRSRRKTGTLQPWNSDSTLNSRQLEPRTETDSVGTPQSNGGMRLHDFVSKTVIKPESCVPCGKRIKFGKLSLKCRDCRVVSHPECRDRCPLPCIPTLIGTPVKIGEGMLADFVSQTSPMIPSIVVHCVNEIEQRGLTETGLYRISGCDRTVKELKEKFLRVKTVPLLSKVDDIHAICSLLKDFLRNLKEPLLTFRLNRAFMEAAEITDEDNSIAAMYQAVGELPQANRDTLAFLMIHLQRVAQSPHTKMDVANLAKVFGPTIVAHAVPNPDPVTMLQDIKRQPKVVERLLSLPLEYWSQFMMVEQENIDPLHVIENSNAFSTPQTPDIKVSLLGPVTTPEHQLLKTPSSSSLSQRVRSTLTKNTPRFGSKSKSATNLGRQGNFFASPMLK
Nature of the data set: blockers of MgcRacGAP-driven Rac1 GTP hydrolysis – biochemical, ADP Hunter fluorescence, primary and confirmatory, confirmation (AID 624330). The format is functional.

Data set [2] can be described thus: Trypanosoma cruzi growth suppression in host cells – NIH3T3 host cells, beta-gal luminescence, confirmation (AID 2044).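 Note: intracellular parasites grown in NIH/3T3 mouse fibroblasts as host cells; luminescent beta-galactosidase reporter signal from transgenic T. cruzi replicating inside host cells; inhibitors lower the luminescence signal.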 Format: functional, cell-based.
Data set [3] can be described thus: NIH3T3 cell viability loss – ATP luminescence, mouse fibroblasts, counter-screen, dose response (AID 2010).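 Note: cells exposed to compound for about 90 hours before reading.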 Format: functional, cell-based. (In general: Counterscreens check selectivity or assay interference.)

Activity calls are given as the source filed them.

The term AC50 denotes the midpoint of the concentration-response curve, whichever way the signal moves. By IC50 is commonly meant the concentration at which inhibition is half-maximal. As usually defined, the EC50 is the midpoint of the concentration-response curve.

Cytochrome P450 2C19, sequence (P33261 whole entry): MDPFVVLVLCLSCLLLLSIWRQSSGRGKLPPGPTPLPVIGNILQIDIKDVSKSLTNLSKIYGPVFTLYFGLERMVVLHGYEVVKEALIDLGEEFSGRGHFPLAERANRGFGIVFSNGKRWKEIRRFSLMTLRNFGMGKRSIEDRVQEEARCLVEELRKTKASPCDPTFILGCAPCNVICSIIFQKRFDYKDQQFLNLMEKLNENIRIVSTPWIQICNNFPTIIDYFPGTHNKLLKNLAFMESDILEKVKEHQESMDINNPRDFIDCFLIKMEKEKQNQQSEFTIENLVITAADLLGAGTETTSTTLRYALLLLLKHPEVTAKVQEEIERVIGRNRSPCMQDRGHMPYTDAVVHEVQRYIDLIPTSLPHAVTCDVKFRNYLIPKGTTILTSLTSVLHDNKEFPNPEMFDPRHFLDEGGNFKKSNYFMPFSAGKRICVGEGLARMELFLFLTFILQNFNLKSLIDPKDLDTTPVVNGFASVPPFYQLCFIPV
Cytochrome P450 3A4, sequence (P08684 whole entry): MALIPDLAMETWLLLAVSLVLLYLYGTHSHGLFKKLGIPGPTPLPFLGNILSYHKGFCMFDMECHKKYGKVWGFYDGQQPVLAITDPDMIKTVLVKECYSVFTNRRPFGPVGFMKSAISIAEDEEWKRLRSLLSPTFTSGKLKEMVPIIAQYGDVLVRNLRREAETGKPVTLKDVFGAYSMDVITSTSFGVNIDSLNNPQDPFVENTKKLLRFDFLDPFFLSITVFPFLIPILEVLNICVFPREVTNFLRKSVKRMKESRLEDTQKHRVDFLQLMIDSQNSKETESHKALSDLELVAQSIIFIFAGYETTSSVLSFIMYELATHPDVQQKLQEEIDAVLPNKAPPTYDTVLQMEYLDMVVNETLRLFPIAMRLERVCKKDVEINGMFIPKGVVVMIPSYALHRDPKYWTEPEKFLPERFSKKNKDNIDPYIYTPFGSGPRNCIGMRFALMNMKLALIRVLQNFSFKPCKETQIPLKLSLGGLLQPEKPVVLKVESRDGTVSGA
Cytochrome P450 2C9, sequence (P11712 whole entry): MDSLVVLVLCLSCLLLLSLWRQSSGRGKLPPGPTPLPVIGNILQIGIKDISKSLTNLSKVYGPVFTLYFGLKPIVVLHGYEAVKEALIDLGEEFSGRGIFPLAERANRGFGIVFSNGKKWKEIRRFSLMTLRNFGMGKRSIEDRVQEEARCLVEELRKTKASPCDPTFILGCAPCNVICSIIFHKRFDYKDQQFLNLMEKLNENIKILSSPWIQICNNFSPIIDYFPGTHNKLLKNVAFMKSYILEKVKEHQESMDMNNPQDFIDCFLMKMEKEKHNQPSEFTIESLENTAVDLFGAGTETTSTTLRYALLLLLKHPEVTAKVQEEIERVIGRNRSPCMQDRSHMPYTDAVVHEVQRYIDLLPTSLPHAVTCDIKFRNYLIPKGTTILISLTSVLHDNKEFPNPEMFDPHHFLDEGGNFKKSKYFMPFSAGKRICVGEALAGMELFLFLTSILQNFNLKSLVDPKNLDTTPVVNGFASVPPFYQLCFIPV

`COc1ccc2oc(C(=O)c3ccccc3)c(N)c2c1`: the AC50 at Cytochrome P450 2C19 (read-out: AC50) is 5.01 µM (inconclusive); at Cytochrome P450 3A4 it was 14.1 µM (inconclusive). For `CC(C)(C)C(=O)OCc1cn(-c2ccc(Cl)cc2)nn1`, on Cytochrome P450 2C9, the AC50 is 28.2 µM (inconclusive). `COc1ccc(OC)c(CN2CCN(Cc3cccc4ccccc34)CC2)c1`: the IC50 in data set [1] was 66 µM (active).

For `COc1cc(C(=O)Nc2ccc3c(c2)N(C(=O)CCN(C)C)c2ccccc2CC3)cc(OC)c1OC`, the EC50 was 0.642 µM (active) in data set [2] and > 60 µM (not active) in data set [3]. As to `O=C1CN2CCN(CC2)CC(=O)Nc2ccc(cc2)S(=O)(=O)c2ccc(cc2)NC(=O)CN2CCN(CC2)CC(=O)Nc2ccc(cc2)S(=O)(=O)c2ccc(cc2)N1`, at Cytochrome P450 2C9, the AC50 was 0.398 µM (inconclusive). For `CN1CCN(CCOCCOc2ccc(Br)cc2Cl)CC1`, in data set [1], the IC50 is 84.1 µM (active). As to `CC(=O)OC1COC(N2CCc3cc([N+](=O)[O-])ccc32)C(OC(C)=O)C1OC(C)=O` (stereo unspecified), the AC50 is 3.98 µM (inconclusive) on Cytochrome P450 2C19 (read-out: AC50) and 25.1 µM (inconclusive) at Cytochrome P450 3A4. Consider `CCOC(=O)c1sc(NC(=O)CCCCCN2C(=O)c3cccc4cccc(c34)C2=O)nc1C`, for which the values for the AC50 at Cytochrome P450 2C19 (read-out: AC50), at Cytochrome P450 3A4 and on Cytochrome P450 2C9 were 6.31 µM (inconclusive), 5.01 µM (inconclusive) and 2.24 µM (inconclusive), respectively.

Consider `COC(=O)[C@@]1(Cc2ccc(F)cc2)[C@@H]2C(=CC(=O)[C@H]2CC(=O)C(=O)N2CCCC2)CN1C(=O)c1ccccc1`, for which the AC50 on Cytochrome P450 3A4 is 5.01 µM (inconclusive). As for `CCN(CC)S(=O)(=O)N1CCC(C(=O)NCc2ccc(C)cc2)CC1`, the AC50 entry at Cytochrome P450 2C19 is on record as “inconclusive”.

With `Cn1nc([N+](=O)[O-])nc1Sc1ccc(Cl)cc1`, the results for the EC50 in data set [2] and in data set [3] were 0.108 µM (active) and > 30 µM (not active), respectively. As to `COc1ccc(NC2CCCN(C(=O)CCCn3cncn3)C2)cc1OC` (stereo unspecified), the IC50 in data set [1] is 237 µM (active). On to `CCNc1ncc2nc(C)c(=O)n(CCc3ccccc3)c2n1`, for which the AC50 at Cytochrome P450 3A4 is 15.8 µM (inconclusive). For `CSc1nc(N)nc(SCC(=O)C23CC4CC(CC(C4)C2)C3)c1C#N`, the EC50 in data set [2] is 1.59 µM (active); in data set [3], > 60 µM (not active).

Take `CC(C)CC1NC(=S)N(C2CCCCC2)C1=O` (stereo unspecified): the AC50 on Cytochrome P450 3A4 is 20 µM (inconclusive). Take `COc1ccc(CNc2ncncc2-c2ccccc2OC)c(OC)c1`: at Cytochrome P450 2C9, the AC50 was 0.794 µM (inconclusive). `O=C(NC1CCCCC1)C(c1ccccc1)N1CCOCC1` (stereo unspecified): the AC50 at Cytochrome P450 2C19 (read-out: AC50) is 20 µM (inconclusive). Consider `Cc1nn(C(C)C(=O)N2CCCC2)c(=O)c2nn(-c3ccccc3)c(C)c12` (stereo unspecified), for which the EC50 in data set [2] is 48.4 µM (active); in data set [3], > 60 µM (not active).

For the molecule `Cc1ccc(/C=N/n2c(S)nnc2COc2ccccc2)s1`, on Cytochrome P450 2C19 (read-out: AC50), the AC50 was 2.24 µM (inconclusive). Regarding `O=C(Nc1ccccc1N1CCCC1)c1ccc([N+](=O)[O-])cc1Cl`, the values for the EC50 in data set [2] and in data set [3] were 2.37 µM (active) and > 60 µM (not active), respectively. Consider `Cc1ccccc1-c1ccc2ncnc(NCc3cccs3)c2c1`, for which the AC50 on Cytochrome P450 2C9 was 1.26 µM (inconclusive).

For `O=C(CN(c1ccccc1)S(=O)(=O)c1ccccc1[N+](=O)[O-])NN=C1CCCCCCC1`, the AC50 at Cytochrome P450 2C9 was 1.58 µM (inconclusive). Regarding `CC(C)C(=O)Nc1ccc(C(=O)NNC(=O)CCCOc2ccc(Cl)cc2Cl)cc1`, the AC50 on Cytochrome P450 2C9 was 2.51 µM (inconclusive). For the molecule `O=C1C[C@@H](c2ccc(O)cc2)Oc2cc(O)cc(O)c21` [NARINGENIN], at Cytochrome P450 2C19 (read-out: AC50), the AC50 was 3.98 µM (inconclusive). As to `CCC(=O)NC(Nc1sc2c(c1C(=O)OC)CCCC2)(C(F)(F)F)C(F)(F)F`, the AC50 on Cytochrome P450 2C9 is 1.26 µM (inconclusive). With `Cc1ccc(CS(=O)(=O)CCC(=O)NCCCN2CCCC2)cc1`, the AC50 result at Cytochrome P450 2C19 was “inconclusive”. As to `COc1ccc(-c2cnc(N)nc2-c2ccc(OCc3ccccc3)cc2O)cc1`, the EC50 in data set [2] is 2.19 µM (active); in data set [3], 10.6 µM (active).

Take `Cc1noc(C)c1C(=O)N1CCC2(CCN(Cc3ccncc3)CC2)CC1`: at Cytochrome P450 3A4, the AC50 is 12.6 µM (inconclusive). In the case of `CC(=O)Oc1cc(C(F)(F)F)ccc1C(=O)O` [TRIFLUSAL], the AC50 at Cytochrome P450 2C19 (read-out: AC50) was 3.98 µM (inconclusive). With `COc1ccc(CNC(=O)C2CCCN(Cc3nc(-c4cccc(C)c4)oc3C)C2)cc1` (stereo unspecified), the EC50 is 0.381 µM (active) in data set [2] and > 60 µM (not active) in data set [3]. For the molecule `CCC(O)CNc1nc(-n2nc(C)cc2C)nc2sc3c(c12)CC(C)(C)OC3` (stereo unspecified), the AC50 on Cytochrome P450 2C19 (read-out: AC50) is 20 µM (inconclusive); on Cytochrome P450 3A4 it was 7.08 µM (inconclusive). Regarding `CS(=O)(=O)N1CCC2(CC1)CN(c1ncccn1)C2`, the AC50 at Cytochrome P450 3A4 was 20 µM (inconclusive).

`COc1cc(C(=O)N/N=C(\C)c2ccc(NC(=O)Cc3ccccc3)cc2)ccc1O`: the IC50 in data set [1] was 145 µM (active). As for `C[N+]1(C)CCN(c2ccccc2)CC1` [DIMETHYLPHENYLPIPERAZINIUM], the AC50 on Cytochrome P450 3A4 is 10 µM (inconclusive).

With `O=C(CSc1ccc2ccccc2c1)N1CCN(c2ccc(O)cc2)CC1`, the IC50 in data set [1] was 45.1 µM (active). Regarding `CCOC(=O)c1cc(NC(=O)c2ccc(OC)cc2)c(=O)oc1-c1ccccc1`, on Cytochrome P450 2C9, the AC50 was 2.24 µM (inconclusive). Take `CCCn1c2c(c(O)c(C(=O)Nc3ccc(OC)cc3)c1=O)CCCC2`: the EC50 in data set [2] was 2.88 µM (active); in data set [3] it was > 30 µM (not active).

Turning to `Cc1[nH]c2ccccc2c1C(=O)CN1CC=C(c2ccccc2)CC1`, the EC50 in data set [2] is 0.857 µM (active); in data set [3] it was > 60 µM (not active). For `CCN(CC)CCN(C(=O)c1cccc([N+](=O)[O-])c1)c1nc2ccc(OC)cc2s1` the same measures were 0.158 µM (active) and > 60 µM (inconclusive). For `CCCN1CCC(N(C)CCc2ccc(OC)c(OC)c2)CC1`, the EC50 in data set [2] was 0.124 µM (active); in data set [3], > 60 µM (not active). As for `CCCCOC(=O)CSc1nnc(-c2cc(OC)c(OC)c(OC)c2)o1`, the AC50 was 25.1 µM (inconclusive) on Cytochrome P450 3A4 and 8.91 µM (inconclusive) at Cytochrome P450 2C9.

Regarding `CCOC(=O)Nc1ccc2c(c1)N(C(=O)CCN1CCN(C)CC1)c1ccccc1S2`, the AC50 at Cytochrome P450 2C19 (read-out: AC50) and on Cytochrome P450 3A4 was 1.26 µM (inconclusive) each time. Take `CN1CCN(c2ncnc3ccc(-c4ccc5c(c4)OCO5)cc23)CC1`: the AC50 on Cytochrome P450 2C19 (read-out: AC50) is 39.8 µM (inconclusive). Consider `COc1ccccc1N1CCN(CC(=O)c2ccc(F)cc2)CC1`, for which the IC50 in data set [1] is 157 µM (active). On to `O=C(c1cc(-c2ccncc2)nc2ccccc12)N1CCN(c2ccc(N3CCOCC3)nn2)CC1`, for which the AC50 on Cytochrome P450 2C19 (read-out: AC50) is 15.8 µM (inconclusive). As to `Cc1cc(Br)ccc1NC(=O)CCSc1ccccc1`, the AC50 on Cytochrome P450 3A4 is 6.31 µM (inconclusive). In the case of `CCCCNC(=O)C1CCN(Cc2ccccn2)CC1`, the AC50 at Cytochrome P450 2C19 (read-out: AC50) was 35.5 µM (inconclusive). Still for that read-out and setting: with `O=C(O)C1CCN(c2ncccn2)CC1` the figure was 0.0316 µM (inconclusive). For the molecule `CN(Cc1ccco1)c1ncncc1-c1ccc2c(c1)OCO2`, the AC50 on Cytochrome P450 2C9 is 0.794 µM (inconclusive). In the case of `COCCNCc1nc(O)c2c(-c3ccccc3)c(C)sc2n1`, the IC50 in data set [1] is 225 µM (active).

For `Nc1ccc(Oc2ccc3nc(-c4ccccc4)c(-c4ccc([N+](=O)[O-])cc4)nc3c2)cc1`, the AC50 on Cytochrome P450 2C9 is 3.98 µM (inconclusive). Take `CN(C)/N=C/c1ccc(OC(=O)c2cccc([N+](=O)[O-])c2)cc1`: in data set [1], the IC50 is 50.4 µM (active). In the case of `O=c1c(-c2cccc(Cl)c2)nc2cncnc2n1-c1ccccc1`, the AC50 at Cytochrome P450 3A4 is 25.1 µM (inconclusive). On to `CCC(=O)N[C@@H]1CCc2cccc(OC)c2C1`, for which, at Cytochrome P450 2C9, the AC50 was 15.8 µM (inconclusive). `Cc1ccccc1-c1ccc2ncnc(N3CCNCC3)c2c1`: the AC50 at Cytochrome P450 2C19 (read-out: AC50) and on Cytochrome P450 3A4 was 15.8 µM (inconclusive) throughout. Take `COC(=O)C1CCN(c2cc(=O)n(C3CCCCC3)c(=O)[nH]2)CC1`: the values for the AC50 on Cytochrome P450 3A4 and on Cytochrome P450 2C9 were 14.1 µM (inconclusive) and 7.94 µM (inconclusive), respectively.

Consider `CN(C)c1nc(NC(C)(C)C)nc(NC(C)(C)C)n1`, for which the EC50 is 0.596 µM (active) in data set [2] and > 60 µM (not active) in data set [3]. For `CCc1cccc(CN2CCC(CNC(=O)Nc3ccc(Cl)cc3)CC2)c1` the same measures were 1.25 µM (active) and > 60 µM (not active). On to `COc1ccccc1-c1cncnc1NCCc1cnc[nH]1`, for which the AC50 on Cytochrome P450 2C9 was 0.501 µM (inconclusive). Turning to `C[C@H]1COC(=O)[C@H]2CCCN2C(=O)[C@@H](C)COC(=O)[C@H](Cc2ccccc2)NC1=O`, the AC50 entry on Cytochrome P450 2C19 is “inconclusive”. In the case of `CC(=O)c1cccc(Nc2cc(C)nc3c(C)cc(C)cc23)c1`, the figures for the EC50 in data set [2] and in data set [3] were 1.42 µM (active) and > 60 µM (inconclusive), respectively. For `Cc1cc(/C=C2/NC(=O)N(Cc3ccccc3F)C2=O)c(C)n1C(C)C`, the EC50 is 0.154 µM (active) in data set [2] and > 60 µM (not active) in data set [3].
